Reference: patent US8946166B2, “Peptide-based compounds and compositions which inhibit muscle contraction” (Lipotec, S.A., priority 2009, dated 2015)

Tested on: AChR clusters
Assay: AChR clustering inhibition trial (agrin-induced AChR clusters in myotubes, α-bungarotoxin-tetramethylrhodamine staining, confocal quantification)
Format: cell-based
Details: mouse myotubes, normalized to basal values of the medium

Row | Substance | Percentage of AChR cluster inhibition (peptide 10 μM) | Percentage of AChR cluster inhibition (peptide 100 μM)
1 | Ac-L-Glu-L-Asp-L-Tyr-L-Tyr-L-Arg-L-Leu-NH2 | 57.1% | –
2 | Ac-L-Pro-L-Asp-L-Tyr-L-Phe-L-Arg-L-Leu-NH—(CH2)15—CH3 | – | 27.8%
3 | Ac-L-Glu-L-Asp-L-Arg-L-Tyr-L-Arg-L-Leu-NH2 | – | 24.5%
4 | Ac-L-Pro-L-Asp-L-Tyr-L-Tyr-L-Lys-L-Leu-NH2 | – | 36.7%
5 | Ac-L-Glu-L-Asp-L-Arg-L-Phe-L-Lys-L-Leu-NH2 | 23.7% | –
6 | H-L-Glu-L-Asp-L-Arg-L-Phe-L-Arg-L-Met-NH2 | 25.6% | –
7 | Palm-L-Glu-L-Asp-L-Tyr-L-Tyr-L-Arg-L-Met-NH2 | – | 68.5%
8 | Ac-L-Glu-L-Asp-L-Arg-L-Phe-L-Arg-L-Leu-NH2 | 20.8% | –
9 | Ac-L-Glu-L-Asp-L-Tyr-L-Phe-L-Arg-L-Leu-NH2 | 30.8% | –
10 | Ac-L-Pro-L-Asp-L-Tyr-L-Tyr-L-Arg-L-Leu-NH2 | 51.9% | –
11 | Ac-L-Pro-L-Asp-L-Arg-L-Tyr-L-Arg-L-Leu-NH2 | – | 40.2%
12 | Palm-L-Pro-L-Asp-L-Tyr-L-Tyr-L-Lys-L-Leu-NH2 | 33.7% | –
13 | Ac-L-Asp-L-Asp-L-Tyr-L-Phe-L-Arg-L-Leu-NH2 | 33.8% | –
14 | Ac-L-Pro-L-Asp-L-Arg-L-Phe-L-Lys-L-Leu-NH2 | 46.1% | –
15 | Ac-L-Asp-L-Asp-L-Tyr-L-Tyr-L-Arg-L-Met-NH2 | 31.3% | –
16 | Palm-L-Glu-L-Asp-L-Tyr-L-Tyr-L-Arg-L-Leu-NH2 | 34.8% | –
17 | Ac-L-Pro-L-Asp-L-Tyr-L-Tyr-L-Arg-L-Met-NH2 | 61.1% | –
18 | Ac-L-Glu-L-Asp-L-Arg-L-Phe-L-Arg-L-Met-OH | – | 39.1%
19 | Ac-L-Pro-L-Asp-L-Tyr-L-Phe-L-Lys-L-Leu-NH2 | 27.8% | –
20 | Ac-L-Glu-L-Asp-L-Tyr-L-Phe-L-Arg-L-Leu-OH | – | 33.8%
21 | Ac-L-Pro-L-Asp-L-Arg-L-Tyr-L-Lys-L-Leu-NH2 | – | 43.6%
22 | Ac-L-Glu-L-Asp-L-Arg-L-Phe-L-Arg-L-Met-NH2 | – | 55.1%
23 | Ac-L-Asp-L-Asp-L-Tyr-L-Tyr-L-Lys-L-Met-NH2 | 21.5% | –
24 | Ac-L-Pro-L-Asp-L-Tyr-L-Tyr-L-Lys-L-Met-NH2 | 40.7% | –
